Data on 4 molecules can be found in patent US8003779B2, “Compositions and methods for studying and treating inflammatory diseases and disorders” (University of Rochester, priority 2005, dated 2011).

For one data set, the system named is 293HGLVP/CrePr cells. Put plainly: RU486-induced CrePr activation of IL-1βXAT in 293HGLVP/CrePr cells. It counts as cell-based.
For data set [1] the following is noted: literature (Loddick and Rothwell 1996; Yamasaki et al. 1995); cited from earlier work.
A further data set deals with mice. It counts as in vivo. The following applies: perinatal systemic administration.
The subject of data set [2] is primary rat endothelial cells. Put plainly: IL-1β regulation of inflammation-related genes in primary rat endothelial cells (mRNA, zymography). It counts as cell-based. As to conditions: murine IL-1β 10 ng/mL, over 72 hours. Here is the method:
The effects of IL-1β were evaluated in vitro utilizing primary rat endothelial cell cultures as a representative rodent cell type. In this experiment, murine IL-1β (10 ng/mL) was administered to cultured primary cells, and subsequently examined for the regulation of several inflammation-related genes at the transcript level over the course of 72 hours. These molecules include (A) the inducible isoform of cyclooxygenase (COX-2), intercellular adhesion molecule-1 (ICAM-1) and monocyte chemoattractant protein-1 (MCP-1), as well as (B) the collagenase-A (MMP-2) and -B (MMP-9). Panel (C) depicts enzyme activity levels of MMP-2 and MMP-9 as evaluated by zymography.
Moreover, a plethora of inflammation-related genes are in turn induced by IL-1β, leading to exacerbation of the inflammatory response. IL-1βregulates down-stream inflammatory genes, including the inducible isoform of cyclooxygenase (COX-2) and the intercellular adhesion molecule-1 (ICAM-1), the monocyte chemoattractant protein-1 (MCP-1), as well as collagenases A (MMP-2) and B (MMP-9). ICAM-1 and MCP-1 are molecules associated with the recruitment of circulating immune cells at the site of injury (i.e. neutrophils and monocytes, respectively), whereas MMP-2 and MMP-9 are collagenases associated with tissue destruction during arthritis and injury. Primary rat endothelial cells were employed as a representative rodent model to investigate the effects of IL-1β on the regulation of ICAM-1, MCP-1, MMP-2 and MMP-9 at the transcriptional level (mRNA) as well as the enzyme activity level (zymography). FIG. 5 summarizes the regulation of these genes over time.

Protocol for 293HGLVP/CrePr cells: The IL-1β^XAT gene was transiently transfected into 293HGLVP/CrePr cells and the expression of IL-1β and lacZ were evaluated following RU486 (10^-7 M) administration.
IL-1β expression was assessed at the mRNA level by reverse transcriptase PCR (RT-PCR), and lacZ expression was evaluated by X-gal histochemistry.

As to `CC#C[C@]1(O)CC[C@H]2[C@@H]3CCC4=CC(=O)CCC4=C3[C@@H](c3ccc(N(C)C)cc3)C[C@@]21C` [RU486, mifepristone], in the data set on 293HGLVP/CrePr cells (RU486 10^-7 M), the “secreted IL-1β protein in supernatant media (ELISA)” value is listed as “significantly higher levels”. Moreover, the “IL-1β and lacZ mRNA (RT-PCR)” value in the data set with 293HGLVP/CrePr cells (RU486 10^-7 M, IL-1βXAT-transfected cells) is given as “up-regulation”. For the same molecule, the “number of X-gal positive cells” value in the data set on 293HGLVP/CrePr cells (RU486 in culture media) is listed as “significant increase”.
With “IL-1ra: IL-1 receptor antagonist, competes for receptor binding”, in data set [1], the “tissue damage / injury in stroke models” value is recorded as “significantly attenuates tissue injury”.
For “FIV(lacZ): FIV vector carrying the reporter gene lacZ, construct 12750 bp”, in the data set with mice, the “duration of stable lacZ reporter expression” value is “over 3 months”.

B1: IL-1β: pro-inflammatory cytokine; murine IL-1β (10 ng/mL) in FIG. 5 (protein, UniProt P10749 118-269, looked up)
Interleukin-1 beta: VPIRQLHYRLRDEQQKSLVLSDPYELKALHLNGQNINQQVIFSMSFVQGEPSNDKIPVALGLKGKNLYLSCVMKDGTPTLQLESVDPKQYPKKKMEKRFVFNKIEVKSKVEFESAEFPNWYISTSQAEHKPVFLGNNSGQDIIDFTMESVSS
For B1, in data set [2], the “MMP-2 enzyme activity (zymography)” value is recorded as “increased with time”; the “MMP-2 mRNA levels” value was “not altered”; the “synthesis of COX-2, MCP-1, ICAM-1 and MMP-9” value is “upregulated”. Also, the “tissue damage / injury in stroke models” value in data set [1] is on record as “exacerbates damage”.
